# Measured values: paper PMC5342526, “Identification of Bisindolylmaleimide IX as a potential agent to treat drug-resistant BCR-ABL positive leukemia” (Oncotarget, 2016)
# Columns and labels:
# Jak2 = Jak2 (Homo sapiens, UniProt O60674); test: Z'-LYTE in vitro kinase assay; assay type: biochemical; details: mean ±SEM
# DNA topoisomerase = test: DNA relaxation assay with extracts of treated MEFs; assay type: cell-based, mouse; details: supercoiled pBluescript plasmid DNA as template
# Procedure: Bisindolylmaleimide IX and other derivatives were added to MEF cultures and 24 hrs later, the cells were washed with PBS and harvested in TNE buffer. The control and Bisindolylmaleimide IX-treated cell extracts were directly used to test the topoisomerase activity using a kit from Topogen (Port Orange, USA) following the manufacturer's protocol, or pBluescript DNA as a template. The in vitro incubation lasted 30 min at room temperature. A 2% agarose gel was run to analyze DNA unwinding (Topogen) or 0.8% gel for pBluescript DNA.
# γH2AX foci in MEFs = test: γH2AX DNA damage foci, immunofluorescent staining; assay type: cell-based, mouse; details: 2.5 μM, 4 hrs
# Procedure: MEFs or HCT116 cells were cultured on cover slips while Baf3 cells were cultured on slides coated by 0.1mg/ml poly-L-lysine, washed with phosphate-buffered saline (PBS) twice, and then fixed in 4% paraformaldehyde (PFA), which were permeabilized with 0.1% Triton X in PBS for 30 minutes at room temperature. The primary antibodies were diluted in PBS with 1% BSA (1:200). The slides were blocked (1% BSA in PBS) for 60 minutes at room temperature, incubated with primary antibodies overnight at 4°C, and followed by secondary antibody incubation for 60 min at RT. The slides were then mounted and observed under confocal microscope (Leica, Germany). Antibodies against γH2AX were from Bethyl Corporation.
# Aurora A = molecular target: T1, Aurora A (Homo sapiens, UniProt O14965); test: Z'-LYTE in vitro kinase assay; assay type: biochemical; details: mean ±SEM
# T1 construct: made in house; host or cells: Escherichia coli BL21-Codon Plus (DE3)
# T1 sequence (O14965 whole entry): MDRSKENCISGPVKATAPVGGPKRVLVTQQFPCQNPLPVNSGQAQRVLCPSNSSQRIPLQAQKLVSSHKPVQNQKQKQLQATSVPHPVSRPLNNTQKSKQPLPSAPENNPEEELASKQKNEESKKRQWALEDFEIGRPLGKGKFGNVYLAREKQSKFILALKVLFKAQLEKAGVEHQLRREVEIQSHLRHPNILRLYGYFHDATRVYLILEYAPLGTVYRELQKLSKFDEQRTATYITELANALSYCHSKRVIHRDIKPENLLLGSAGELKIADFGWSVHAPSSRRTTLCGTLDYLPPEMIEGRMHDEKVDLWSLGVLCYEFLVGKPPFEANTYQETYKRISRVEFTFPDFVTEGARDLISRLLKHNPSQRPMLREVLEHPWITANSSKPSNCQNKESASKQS
# Procedure: (§1) The recombinant Auror, B-Raf, IKKβ, SYK, BCR-Abl, MEK1 and Erk1 proteins were expressed in Escherichia coli strain BL21-Codon Plus (DE3), purified by Ni-NTA Agarose (QIAGEN). The kinase assays were carried out with the Z'-LYTETM Kinase Assay kit using Ser/Thr3 Peptide substrate (Invitrogen). The reactions were carried out according to the Z-LYTE protocol and the results were read on an EnVision plate reader. All reactions were carried out in triplicate. Data were expressed as mean ±SEM.
# IKKβ = molecular target: T2, IKKβ (Homo sapiens, UniProt O14920); test: Z'-LYTE in vitro kinase assay; assay type: biochemical; details: mean ±SEM
# T2 construct: made in house; host or cells: Escherichia coli BL21-Codon Plus (DE3)
# Procedure: as §1
# MEK1 = molecular target: T3, MEK1 (Homo sapiens, UniProt Q02750); test: Z'-LYTE in vitro kinase assay; assay type: biochemical
# T3 construct: made in house; host or cells: Escherichia coli BL21-Codon Plus (DE3)
# T3 sequence (Q02750 whole entry, species assumed): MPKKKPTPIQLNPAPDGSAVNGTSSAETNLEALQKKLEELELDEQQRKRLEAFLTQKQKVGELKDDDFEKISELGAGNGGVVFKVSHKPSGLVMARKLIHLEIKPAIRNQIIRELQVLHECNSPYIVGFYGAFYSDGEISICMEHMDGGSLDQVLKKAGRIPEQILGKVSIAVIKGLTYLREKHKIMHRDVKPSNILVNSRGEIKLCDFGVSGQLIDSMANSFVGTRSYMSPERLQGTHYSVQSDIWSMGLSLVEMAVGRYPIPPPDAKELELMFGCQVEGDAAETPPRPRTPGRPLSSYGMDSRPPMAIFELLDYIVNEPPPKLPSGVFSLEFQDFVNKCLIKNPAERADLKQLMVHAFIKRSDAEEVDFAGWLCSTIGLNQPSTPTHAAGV
# Procedure: as §1
# SYK = molecular target: T4, SYK (Homo sapiens, UniProt P43405); test: Z'-LYTE in vitro kinase assay; assay type: biochemical
# T4 construct: made in house; host or cells: Escherichia coli BL21-Codon Plus (DE3)
# Procedure: as §1
# B-Raf = molecular target: T5, B-Raf (Homo sapiens, UniProt P15056); test: Z'-LYTE in vitro kinase assay; assay type: biochemical; details: mean ±SEM
# T5 construct: made in house; host or cells: Escherichia coli BL21-Codon Plus (DE3)
# Procedure: as §1
# ERK1 = molecular target: T6, ERK1 (Homo sapiens, UniProt P27361); test: Z'-LYTE in vitro kinase assay; assay type: biochemical
# T6 construct: made in house; host or cells: Escherichia coli BL21-Codon Plus (DE3)
# T6 sequence (P27361 whole entry, species assumed): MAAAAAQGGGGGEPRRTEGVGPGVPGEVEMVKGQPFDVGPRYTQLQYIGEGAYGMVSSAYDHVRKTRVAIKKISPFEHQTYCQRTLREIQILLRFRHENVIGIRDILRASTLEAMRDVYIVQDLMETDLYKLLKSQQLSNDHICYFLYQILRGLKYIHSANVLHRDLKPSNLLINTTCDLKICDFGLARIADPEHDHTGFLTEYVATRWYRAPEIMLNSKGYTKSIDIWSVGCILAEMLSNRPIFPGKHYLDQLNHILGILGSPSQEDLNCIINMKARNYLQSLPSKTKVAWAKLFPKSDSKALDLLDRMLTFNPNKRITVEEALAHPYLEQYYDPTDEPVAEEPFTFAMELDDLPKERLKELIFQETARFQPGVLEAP
# Procedure: as §1
# BCR-ABL = BCR-ABL (Homo sapiens, UniProt P00519); test: Z'-LYTE in vitro kinase assay; assay type: biochemical
# Chain of BCR-ABL (P00519 27-1130): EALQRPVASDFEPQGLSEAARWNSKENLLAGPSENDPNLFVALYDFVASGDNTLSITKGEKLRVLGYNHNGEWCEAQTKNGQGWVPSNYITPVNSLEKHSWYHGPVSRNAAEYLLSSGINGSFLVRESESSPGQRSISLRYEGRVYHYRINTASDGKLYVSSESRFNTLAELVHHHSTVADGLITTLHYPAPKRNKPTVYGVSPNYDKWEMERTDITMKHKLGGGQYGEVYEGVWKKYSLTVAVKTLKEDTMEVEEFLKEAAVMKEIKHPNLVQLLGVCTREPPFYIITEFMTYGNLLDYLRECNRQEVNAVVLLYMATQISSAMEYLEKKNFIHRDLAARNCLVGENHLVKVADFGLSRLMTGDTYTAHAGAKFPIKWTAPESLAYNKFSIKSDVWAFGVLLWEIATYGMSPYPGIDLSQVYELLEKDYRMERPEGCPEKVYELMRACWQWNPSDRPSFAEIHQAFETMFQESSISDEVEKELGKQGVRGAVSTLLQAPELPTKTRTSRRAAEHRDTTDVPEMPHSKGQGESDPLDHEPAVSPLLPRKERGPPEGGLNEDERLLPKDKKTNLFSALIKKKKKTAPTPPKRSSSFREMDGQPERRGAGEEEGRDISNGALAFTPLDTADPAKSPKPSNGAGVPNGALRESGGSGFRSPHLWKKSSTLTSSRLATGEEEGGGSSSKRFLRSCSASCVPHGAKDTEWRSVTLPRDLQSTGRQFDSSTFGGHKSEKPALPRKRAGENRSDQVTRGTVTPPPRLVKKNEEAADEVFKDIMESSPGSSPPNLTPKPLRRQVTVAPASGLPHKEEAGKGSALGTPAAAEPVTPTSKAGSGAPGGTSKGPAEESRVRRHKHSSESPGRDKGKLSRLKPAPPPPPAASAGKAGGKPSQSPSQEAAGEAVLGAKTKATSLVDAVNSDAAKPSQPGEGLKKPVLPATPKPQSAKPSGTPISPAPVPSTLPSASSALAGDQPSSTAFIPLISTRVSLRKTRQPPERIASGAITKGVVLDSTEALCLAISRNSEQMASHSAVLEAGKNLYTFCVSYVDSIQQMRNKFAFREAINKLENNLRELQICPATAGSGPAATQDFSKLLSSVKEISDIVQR
# Chain of BCR-ABL (P11274 1-927 partner): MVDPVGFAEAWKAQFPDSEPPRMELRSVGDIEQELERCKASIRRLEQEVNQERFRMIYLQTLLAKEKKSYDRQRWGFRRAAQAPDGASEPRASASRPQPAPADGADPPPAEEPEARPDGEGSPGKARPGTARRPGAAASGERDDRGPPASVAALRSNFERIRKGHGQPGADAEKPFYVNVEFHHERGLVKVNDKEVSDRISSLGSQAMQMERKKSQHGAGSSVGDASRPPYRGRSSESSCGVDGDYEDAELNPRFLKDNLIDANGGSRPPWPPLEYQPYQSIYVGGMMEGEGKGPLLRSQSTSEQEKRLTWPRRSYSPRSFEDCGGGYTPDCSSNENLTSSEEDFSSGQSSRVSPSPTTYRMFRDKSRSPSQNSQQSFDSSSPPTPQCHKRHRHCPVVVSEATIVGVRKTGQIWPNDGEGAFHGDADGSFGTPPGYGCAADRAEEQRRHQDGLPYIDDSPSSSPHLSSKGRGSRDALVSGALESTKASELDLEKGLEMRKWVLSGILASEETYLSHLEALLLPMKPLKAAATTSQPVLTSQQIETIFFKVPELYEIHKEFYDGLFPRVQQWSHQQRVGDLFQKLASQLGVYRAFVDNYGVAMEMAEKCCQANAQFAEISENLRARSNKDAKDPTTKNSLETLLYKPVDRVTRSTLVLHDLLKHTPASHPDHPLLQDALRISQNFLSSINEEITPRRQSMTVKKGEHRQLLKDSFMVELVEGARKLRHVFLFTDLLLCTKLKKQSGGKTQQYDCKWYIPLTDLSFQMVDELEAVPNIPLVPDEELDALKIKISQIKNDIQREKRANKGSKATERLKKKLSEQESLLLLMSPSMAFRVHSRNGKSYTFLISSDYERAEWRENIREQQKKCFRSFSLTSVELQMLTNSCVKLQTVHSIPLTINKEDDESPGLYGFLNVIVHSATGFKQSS
# Procedure: as §1
# Vector MEF cells = test: Wst-1 cell survival assay; details: Mus musculus, 24 h, read-out: IC50, cell survival
# Procedure: (§4) We then evaluated the cytotoxic effect of Bisindolylmaleimide IX in MEFs and HCT116 cells. Different doses of Bisindolylmaleimide IX were applied to the cell cultures and cell survival rates and IC50 were determined with Wst-1 assay.
# (§5) To measure cell survival rates after Bisindolylmaleimide IX treatment, cells were plated at 1×10^4 in 96 well plates and cultured for overnight, which were then treated with Bisindolylmaleimide IX for 48 hrs. Cell proliferation reagent WST-1 (Roche) was added to each well and was further incubated for 4 hrs at 37°C. The absorbance was measured against a control using microplate reader at 440 nm. The reference wavelength was 630 nm.
# BCR-ABL BaF3 cells [1] = test: cells; details: Mus musculus, BaF3, 24 h, read-out: IC50, cell survival
# HCT116 cells [2] = test: Wst-1 cell survival assay; details: HCT116, compared to other genotoxic drugs such as Itu
# p53 in primary MEFs = test: p53 protein level by western blot (screen)
# Procedure: Cells were lysed in TNEN buffer (50 mM Tris, 150 mM NaCl, 5 mM EDTA, 0.5% NP-40, and 0.1% Triton X-100) supplemented with 1 mM NaF, Na2VO3, 1 mM PMSF, and 1 μg/ml of aprotonin, leupeptin, and pepstatin A. Protein concentrations were determined using a Bio-Rad assay. Proteins were resolved by SDS-PAGE and transferred to polyvinylidene difluoride membranes (Millipore).
# BCR-ABL MEF cells = test: Wst-1 cell survival assay; details: Mus musculus, 24 h, read-out: IC50, cell survival
# Procedure: as §4, §5
# MEFs = test: Cell cycle analysis by FACS; assay type: cell-based, mouse; details: 24 hrs
# Procedure: (§2) Cells were seeded on 35-mm dishes and cultured for 24 hrs, reaching 60–70% confluency. The cells were treated with different concentrations of Bisindolylmaleimide IX for 24 or 48 hrs, harvested by trypsinization, resuspended in 200 μl PBS, and fixed in 100% ethanol overnight at 4°C. The fixed cells were pelleted by centrifugation, resuspended in 800 μl PBS containing ribonuclease A (100 μg/ml) and incubated for 30 min at 37°C. Then 10 μl propidium iodide (PI, 4 mg/ml PBS) were added to the samples, which were assessed on a FACSCalibur flow cytometer using Cell Quest software (BD Bioscience).
# primary MEFs = test: Wst-1 cell survival assay
# Procedure: as §4, §5
# [3] = tested on: Erk in BCR-ABL-expressing BaF3 cells; test: Erk activation, western blot; assay type: cell-based, murine; details: BCR-ABL-expressing BaF3 cells but not control cells, 4 hrs
# Procedure: Activation and expression of Erk, Mek1, and Raf were determined by western blot. B. Inhibition of Erk decreased the cell survival rates in BaF3 cells expressing BCR-ABL compared to control cells. […] C. […] N=3. Right panel: Western blot results showing that B-Raf was knocked down in these cells.
# BCR-ABL BaF3 cells [4] = details: BCR-ABL BaF3, 24 hrs, compared among bisindolylmaleimide derivatives
# HCT116 cells [5] = test: Cell cycle analysis by FACS; assay type: cell-based, human; details: HCT116, 24 hrs
# Procedure: as §2
# BCR-ABL in BaF3 cells = test: BCR-ABL activation in cells, anti-phospho-Tyr western blot; details: 4 hrs
# Procedure: BaF3 cells infected with empty retrovirus or retrovirus expressing BCR-ABL were treated with different doses of Bisindolylmaleimide IX for 4 hrs. Activation and expression of BCR-ABL were determined by western blot. Activation of BCR-ABL was determined by anti-phospho-Tyr antibodies.
# Cells were lysed in TNEN buffer (50 mM Tris, 150 mM NaCl, 5 mM EDTA, 0.5% NP-40, and 0.1% Triton X-100) supplemented with 1 mM NaF, Na2VO3, 1 mM PMSF, and 1 μg/ml of aprotonin, leupeptin, and pepstatin A. Protein concentrations were determined using a Bio-Rad assay. Proteins were resolved by SDS-PAGE and transferred to polyvinylidene difluoride membranes (Millipore). […] Antibodies against p-Tyr were from Merck Millipore Corporation.
# [6] = tested on: intravenously injected BCR-ABL positive BaF3 cells; test: Lifespan of nude mice after intravenous cell injection; assay type: in vivo, mouse; details: 2 or 4 mg/kg every day
# Procedure: (§3) For solid tumor models, the mice were injected with 4 mg / kg of Bisindolylmaleimide IX or solvent. The length (L) and width (W) of the tumor were measured by a digital caliper and expressed as tumor volume (0.5 L×W^2, mm^3). The body weight and the lifespan of the mice with intravenous injection of BaF3 cells were monitored every day. For B-Raf knockdown, lentivirus-mediated expressing shRNA against B-Raf was used.
# [7] = tested on: tumors derived from BCR-ABL-expressing BaF3 cells; test: Subcutaneous solid tumor model in nude mice; assay type: in vivo, mouse; details: 4 mg/kg
# Procedure: as §3
# [8] = tested on: tumors derived from T315I BCR-ABL-expressing BaF3 cells; test: Subcutaneous solid tumor model in nude mice; assay type: in vivo, mouse; details: 4 mg/kg
# Procedure: as §3
# Chain of Jak2 (O60674 whole entry, species assumed): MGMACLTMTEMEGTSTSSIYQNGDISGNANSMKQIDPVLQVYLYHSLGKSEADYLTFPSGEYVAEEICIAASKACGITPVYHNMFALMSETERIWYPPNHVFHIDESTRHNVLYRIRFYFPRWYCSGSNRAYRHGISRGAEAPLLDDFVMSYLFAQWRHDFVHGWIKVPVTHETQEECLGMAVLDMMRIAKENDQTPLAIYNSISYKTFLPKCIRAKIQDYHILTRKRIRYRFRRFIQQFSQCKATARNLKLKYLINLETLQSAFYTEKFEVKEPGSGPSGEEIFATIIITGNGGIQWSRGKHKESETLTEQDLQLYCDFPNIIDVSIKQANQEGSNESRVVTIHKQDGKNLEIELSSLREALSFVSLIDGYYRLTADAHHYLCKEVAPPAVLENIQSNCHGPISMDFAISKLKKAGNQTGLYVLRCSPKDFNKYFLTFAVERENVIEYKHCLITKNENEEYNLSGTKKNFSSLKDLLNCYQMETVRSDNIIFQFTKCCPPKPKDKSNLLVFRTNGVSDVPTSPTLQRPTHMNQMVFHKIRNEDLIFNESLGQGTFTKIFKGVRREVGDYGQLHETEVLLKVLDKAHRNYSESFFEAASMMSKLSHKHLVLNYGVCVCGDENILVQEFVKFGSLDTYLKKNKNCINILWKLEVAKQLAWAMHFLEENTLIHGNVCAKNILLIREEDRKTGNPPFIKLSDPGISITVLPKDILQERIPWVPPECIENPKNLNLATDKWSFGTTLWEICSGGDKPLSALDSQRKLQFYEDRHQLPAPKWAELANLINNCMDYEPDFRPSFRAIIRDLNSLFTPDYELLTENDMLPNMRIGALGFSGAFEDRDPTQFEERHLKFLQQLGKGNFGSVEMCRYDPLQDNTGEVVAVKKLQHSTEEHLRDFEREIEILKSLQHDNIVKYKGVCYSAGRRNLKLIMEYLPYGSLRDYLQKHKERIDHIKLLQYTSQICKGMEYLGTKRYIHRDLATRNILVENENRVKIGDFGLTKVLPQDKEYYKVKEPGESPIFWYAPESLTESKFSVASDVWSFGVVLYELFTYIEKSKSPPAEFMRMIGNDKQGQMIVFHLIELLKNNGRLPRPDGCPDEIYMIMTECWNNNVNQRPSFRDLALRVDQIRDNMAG
smiles,measurement,setting,value
"CS(=O)(=O)O.Cn1cc(C2=C(c3cn(CCCSC(=N)N)c4ccccc34)C(=O)NC2=O)c2ccccc21 [Bisindolylmaleimide IX, 3-[1-[3-(Amidinothio)propyl]-3-indolyl]-4-(1-methyl-3-indolyl)-1H-pyrrole-2,5-dione methanesulfonate]",IC50,Jak2,9.68 ± 0.79 µM
same,DNA relaxation (topoisomerase) activity of extract from treated cells,DNA topoisomerase,partially lost this activity
same,γH2AX foci formation,γH2AX foci in MEFs,numerous foci positive for γH2AX
same,IC50,Aurora A,> 45 µM
same,IC50,IKKβ,0.48 ± 0.005 µM
same,IC50,MEK1,> 45 µM
same,IC50,SYK,> 45 µM
same,IC50,B-Raf,1.14 ± 0.11 µM
same,IC50,ERK1,> 45 µM
same,concentration needed to inhibit BCR-ABL in in vitro kinase assays,BCR-ABL,45 µM
same,IC50,BCR-ABL; in vitro kinase assay,> 45 µM
same,IC50,Vector MEF cells,7.37 µM
same,IC50,BCR-ABL BaF3 cells [1],3.26 µM
same,cytotoxicity (in words),HCT116 cells [2],modest cytotoxicity
same,p53 protein up-regulation,p53 in primary MEFs,up-regulate p53 at the protein levels
same,IC50,BCR-ABL MEF cells,3.46 µM
same,cell cycle profile,MEFs,increase in G2/M phase cells and a decrease in S phase cells
same,cytotoxicity (in words),"primary MEFs; MEFs, compared to other genotoxic drugs such as Itu",modest cytotoxicity
same,IC50,"primary MEFs; Mus musculus, 24 h, read-out: IC50, cell survival",3.83 µM
same,Erk activation,[3],inhibited Erk activation
same,cytotoxic effect (in words),BCR-ABL BaF3 cells [4],most potent one
same,cell cycle profile,HCT116 cells [5],increase in G2/M phase cells and a decrease in S phase cells
same,inhibitory effect on BCR-ABL activity in vivo (in cells),BCR-ABL in BaF3 cells,negligible inhibitory effect
same,lifespan of the mice,[6],extend the lifespan
same,growth of tumors,[7],significantly inhibited growth of the tumors
same,growth of tumors,[8],significantly inhibited growth of tumors
